Measured values taken from PubChem BioAssay AID2060894 (Molecular Pharmacology Branch, DTP, NCI, 2025).

Test system: K12877-001-R-J1-PDC complex spheroid viability
Experiment: Anticancer human tumor K12877-001-R-J1-PDC patient-derived lung adenocarcinoma cell line growth inhibition [RAS]
Conditions: for IC50: curve of first compound; for viability, T/C: stronger effect = lower value
Text: RAS pathway inhibitors in Combinations in Complex Spheroids
A high-throughput screen of multi-cell type tumor spheroids was designed to identify active combinations of RAS pathway inhibitors and targeted small molecules. Complex spheroids include a stromal component modeled by human endothelial cells (HUVEC) and fibroblasts modeled by human mesenchymal stem cells (MSCs). The concentration ranges selected for each drug and investigational agent were based upon clinically achievable concentrations if the clinical Cmax of the agent was known.
Compounds. The drugs and investigational agents: abemaciclib (NSC768073), cobimetinib (NSC768068), divarasib (GDC6063, NSC841802), docetaxel (NSC628503), GDC-1971 (RLY-1971, NSC841576), gemcitabine (NSC613327), inavolisib (NSC800729), ipatasertib (NSC767898), KB-0742 (NSC834161), MRTX-1133 (NSC836407), osimertinib (NSC779217), RMC-4630 (NSC839698), RMC-6236 (NSC851965), RMC-6291 (NSC852671), Ro-3306 (NSC812927), sapanisertib (NSC764658), SN-38 (NSC673596), staurosporine (NSC755774), SY5609 (NSC837396), and tovorafenib (DAY101, NSC766906), were obtained from the National Cancer Institute (NCI) Developmental Therapeutics Program Chemical Repository. The FDA-approved anticancer drug set is available from the NCI Developmental Therapeutics Program. […] The stock solutions were prepared in dimethyl sulfoxide (DMSO, Sigma-Aldrich, St. Louis, MO, cat. D2650) at 800-fold the tested concentration and stored at -70 degrees C prior to their use. All drugs and investigational agents were tested over a range starting from a high concentration at or near the clinical Cmax and decreasing in half-log increments. If the clinical Cmax for an agent had not been determined, the highest concentration tested was 10 microM.
Cell Culture. All cells were maintained in an incubator at 37 degrees C and 5% CO2 with 95% humidity. The PDC lines were cultured according to standard operating procedures established by the NCI PDMR. All PDCs were thawed and cultured in Matrigel-coated flasks prepared with a working solution of 1X Ham's F-12 nutrient mix, without supplementation (Invitrogen, Waltham, MA, cat. 11765054), 100 U/mL penicillin-streptomycin (Invitrogen, cat. 15140122), and 2.5% Matrigel (Corning Inc., Corning, NY, cat. 354248) for the first three passages. The 362531-283-R-J2-PDC and 782815-120-R-J1-PDC lines were cultured in 6C/Colon 1B media, which includes advanced DMEM/F-12 (Thermo Fisher Scientific, cat. 12634028), 10 mM HEPES (Thermo Fisher Scientific, cat. 15630080), 1X GlutaMAX supplement (Thermo Fisher Scientific, cat. 35050061), 0.1 mg/mL primocin (InvivoGen, San Diego, CA, cat. ant-pm-2), 10% defined fetal bovine serum, heat inactivated (HyClone Laboratories Inc., Logan, UT, cat. SH30070.03HI), 50% L-WRN conditioned media (ATCC, cat. CRL-3276), 1.25 mM N-Acetyl-L-cysteine (Sigma-Aldrich, cat. A9165), 10 mM nicotinamide (Sigma-Aldrich, cat. N0636), 1X B-27 supplement (Thermo Fisher Scientific, cat. 17504044), 1X N-2 supplement (Thermo Fisher Scientific, cat. 17502048), 50 ng/mL human EGF (Thermo Fisher Scientific, cat. PHG0311), and 10 microM Y-27632 dihydrochloride (Tocris Bioscience, cat. 1254). The K12877-001-R-J1-PDC line was cultured in 6I media, which includes all 6C/Colon 1B media plus 10 ng/mL human FGF-10 (PeproTech, cat. 100-26), 1 ng/mL human FGF-2 (PeproTech, cat. 100-18B), 1 µM prostaglandin E2 (Tocris Bioscience, cat. 2296), […] hydrocortisone (Sigma-Aldrich, cat. H4001), and […] bovine insulin (Sigma-Aldrich, cat. I6634). The K86415-001-R-J1-PDC line was cultured in 6D media, which includes all 6C/Colon 1B media components minus the L-WRN conditioned media. The 485176-168-R4-J1-PDC was cultured in PANC media, which includes all 6C/Colon 1B media plus 100 ng/mL human FGF-10 (PeproTech, cat. 100-26), 500 nM SB-431542 (Selleckchem, cat. S1067), and 10 nM gastrin (Tocris Bioscience, cat. 3006). […]
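Further: spheroids exposed to agents for one week before readout.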

Work on `CC(C)NCC(C(=O)N1CCN(c2ncnc3c2C(C)CC3O)CC1)c1ccc(Cl)cc1` (configuration not stated) + C=CC(=O)N1CCN(c2nc(OCC3CCCN3C)nc3c(F)c(-c4nc(N)cc(C)c4C(F)(F)F)c(Cl)cc23)C(C)C1 yielded an IC50 (second compound 0.00316 µM) of 2240 nM, an IC50 (second compound 0.01 µM) of 1560 nM and an IC50 (second compound 0.0316 µM) of 1400 nM. It also gave an IC50 (second compound 0.1 µM) of 1420 nM, an IC50 (second compound 0.316 µM) of 934 nM and an IC50 (second compound 1 µM) of 1540 nM. It also gave a viability, T/C (second compound 0.00316 µM, first compound 0.0316 µM) of 87.9%, a viability, T/C (second compound 0.00316 µM, first compound 0.1 µM) of 86.1% and a viability, T/C (second compound 0.00316 µM, first compound 0.316 µM) of 74.5%. It also gave a viability, T/C (second compound 0.00316 µM, first compound 1 µM) of 78.4%, a viability, T/C (second compound 0.00316 µM, first compound 3.16 µM) of 38% and a viability, T/C (second compound 0.00316 µM, first compound 10 µM) of 22%. It also gave a viability, T/C (second compound 0.01 µM, first compound 0.0316 µM) of 82.8%, a viability, T/C (second compound 0.01 µM, first compound 0.1 µM) of 89.2% and a viability, T/C (second compound 0.01 µM, first compound 0.316 µM) of 68.8%. For the same compound, the viability, T/C (second compound 0.01 µM, first compound 1 µM) was 65.8%, the viability, T/C (second compound 0.01 µM, first compound 3.16 µM) was 30.2% and the viability, T/C (second compound 0.01 µM, first compound 10 µM) was 18%. The viability, T/C (second compound 0.0316 µM, first compound 0.0316 µM) was 85.5%, the viability, T/C (second compound 0.0316 µM, first compound 0.1 µM) was 90.6% and the viability, T/C (second compound 0.0316 µM, first compound 0.316 µM) was 73.3%. The viability, T/C (second compound 0.0316 µM, first compound 1 µM) was 63.3%, the viability, T/C (second compound 0.0316 µM, first compound 3.16 µM) was 23.7% and the viability, T/C (second compound 0.0316 µM, first compound 10 µM) was 17.6%. The viability, T/C (second compound 0.1 µM, first compound 0.0316 µM) was 84%, the viability, T/C (second compound 0.1 µM, first compound 0.1 µM) was 71.5% and the viability, T/C (second compound 0.1 µM, first compound 0.316 µM) was 82.4%. The viability, T/C (second compound 0.1 µM, first compound 1 µM) was 63.2%, the viability, T/C (second compound 0.1 µM, first compound 3.16 µM) was 20.2% and the viability, T/C (second compound 0.1 µM, first compound 10 µM) was 16.7%. The viability, T/C (second compound 0.316 µM, first compound 0.0316 µM) was 79.9%, the viability, T/C (second compound 0.316 µM, first compound 0.1 µM) was 79.9% and the viability, T/C (second compound 0.316 µM, first compound 0.316 µM) was 68.2%. For the same compound, the viability, T/C (second compound 0.316 µM, first compound 1 µM) was 51%, the viability, T/C (second compound 0.316 µM, first compound 3.16 µM) was 23.5% and the viability, T/C (second compound 0.316 µM, first compound 10 µM) was 19.5%. For the same compound, the viability, T/C (second compound 1 µM, first compound 0.0316 µM) was 87.8%, the viability, T/C (second compound 1 µM, first compound 0.1 µM) was 75.7% and the viability, T/C (second compound 1 µM, first compound 0.316 µM) was 84.4%. For the same compound, the viability, T/C (second compound 1 µM, first compound 1 µM) was 58.6%, the viability, T/C (second compound 1 µM, first compound 3.16 µM) was 33.9% and the viability, T/C (second compound 1 µM, first compound 10 µM) was 20.9%.
